Experimental data as given in the OPERA property sets (Mansouri et al. 2018).
Where a SMILES comes first, the peptide text is derived from it. [ ]: non-standard residue; d: D form. Orn = NCCC[CH](N)C(=O)O

Row | Structure (SMILES) | logP
1 | CSCCNC(=O)C(F)(F)Cn1cnc([N+](=O)[O-])n1 | 0.41
2 | CCOc1ccccc1OCc1ccccc1CCCN1CCC(O)CC1 | 3.1
3 | CCCCC(=O)OCCOCn1cnc2c(=O)[nH]c(N)nc21 | 0.37
4 | C#CCOc1c(Cl)cc(NC=NOCC(=O)OCC)cc1Cl | 3.6
5 | Cc1[nH]cnc1CSCCNc1cc(=O)cc[nH]1 | 0.8
6 | Cc1ncc([N+](=O)[O-])n1CCNC(=O)OC1CCCCC1 | 2.01
7 | O=C(O)C(OCc1ccc(Cl)cc1)c1ccccc1 (centres undefined) | 2.6
8 | COc1ccc(OCc2ccccc2CCCN2CCC(O)CC2)cc1 | 3.1
9 | O=C1NC(=O)N(Cc2ccccc2)C(=O)C1=O | 1.02
10 | c1ccc(SCc2ccc(CCCN3CCOCC3)cc2)cc1 | 3.62
11 | C=C1CCC2C(C1)c1c(OC)cc(CCC)cc1OC2(C)C (centres undefined) | 6.26
12 | CC(=O)OC1C(=O)C2(C)C(O)CC3OCC3(OC(C)=O)C2C(OC(=O)c2ccccc2)C2(O)CC(OC(=O)C(C)O)C(C)=C1C2(C)C (centres undefined) | 1.52
13 | O=c1[nH]c2ccccc2n1C1CCN(CC(O)C2COc3ccccc3O2)CC1 (centres undefined) | 3.43
14 | Cc1nc(Cl)c([N+](=O)[O-])n1C | 0.87
15 | C#CCOc1c(Cl)cc(NC=NOCC=C)cc1Cl | 3.7
16 | O=[N+]([O-])c1cnc(-c2ccc(F)cc2)[nH]1 | 1.52
17 | CS(=O)(=O)N(c1ccccc1[N+](=O)[O-])S(C)(=O)=O | 0.81
18 | Nc1ccn(C2OC3COC2C3O)c(=O)n1 (centres undefined) | -1.64
19 | CCCOC(=O)C(C(=O)OC)=C1SC=CS1 | 2.72
20 | CSC(=O)c1c(C(F)F)nc(C(F)(F)F)c(C(=O)SC)c1CC(C)C | 4.75
21 | CCC(C)(C)c1ccc(C2CCCC(O)C2)c(O)c1 (centres undefined) | 4.32
22 | CC1(c2ccc(F)cc2)OC2CC3C4CCC5=CC(=O)CCC5C4CCC3(C)C2(C(=O)CO)O1 (centres undefined) | 4.92

Row | Structure (SMILES) | logP
23 | Cc1nc([N+](=O)[O-])cn1C | -0.24
24 | CNC(=NC#N)NCCSCc1nccs1 | 0.89
25 | Cc1ccc(OCc2ccccc2CCCN2CCC(O)CC2)cc1 | 3.5
26 | Cc1nccc2c1[nH]c1ccccc12 | 3.1
27 | CNN=Nc1ccc(C(N)=O)cc1 | 0.47
28 | FC(F)(F)c1ccccc1C1OCC2ON=C(c3ccccc3)C2CO1 (centres undefined) | 4.31
29 | CO[C@@]1(NC(=O)C(C(=O)O)c2ccc(O)cc2)C(=O)N2C(C(=O)O)=C(CSc3nnnn3C)CO[C@@H]21 (some centres undefined) | -0.58
30 | FC(F)(F)C(F)(F)c1ccccc1 | 3.36
31 | CCN(CC)Cc1ccc(C(=O)Nc2ccccc2C)cc1 | 3.31
32 | CCC1(CCC(C)C)C(=O)NC(=O)N(C)C1=O (centres undefined) | 2.45
33 | COCC(O)Cn1ncc([N+](=O)[O-])n1 (centres undefined) | -0.07
34 | COCc1ccc(O)c2ncccc12 | 1.78
35 | CN1CC(O)N(c2nnc(C(C)(C)C)s2)C1=O (centres undefined) | 1.49
36 | Oc1cccc(Cl)n1 | 0.93
37 | Cc1ccccc1CO[C@H]1C[C@]2(C(C)C)CC[C@@]1(C)O2 (single isomer, unassigned) | 4.62
38 | O=C(OCCCl)n1cc(F)c(=O)[nH]c1=O | 0.02
39 | NC1=NCC2c3ccccc3Cc3ccccc3N12 (centres undefined) | 3.51
40 | Cc1n[nH]c(C(=O)NC2CCCCC2)c1[N+](=O)[O-] | 1.71
41 | CNC(=O)C1(O)C(C)CC2C3CCC4=CC(=O)C=CC4(C)C3(F)C(O)CC21C (centres undefined) | 1.54
42 | COCCNC(=O)C(F)(F)Cn1cnc([N+](=O)[O-])n1 | -0.15
43 | COC(=O)c1c(C)[nH]c(-c2ncccc2Cl)c1C(=O)OC | 1.51
44 | OC1CCN(CCCc2ccccc2COc2ccccc2)CC1 | 3.21

Row | Structure (SMILES) | logP
45 | O=[N+]([O-])C=C1NCCN1Cc1ccccn1 | -0.87
46 | O=C(N/N=C/c1ccc[nH]1)Nc1ccccc1 | 2.96
47 | Clc1cc2c(c(Cl)c1Cl)Oc1ccc(Cl)c(Cl)c1O2 | 6.74
48 | Clc1cc(Cl)cc(-c2cc(Cl)c(Cl)c(Cl)c2Cl)c1 | 7.43
49 | CNC(=O)OCc1ccc(Cl)cc1 | 2.42
50 | CC(NC(=O)N(CCCl)N=O)C(=O)O (centres undefined) | 0.78
51 | O=C(CCn1cnc([N+](=O)[O-])n1)NCCO | -1.32
52 | CCN(CC)Cc1cccc(C(=O)Nc2c(C)cccc2C)c1 | 3.09
53 | CCOC(=O)C(CC)C(CO)Cc1cncn1C (centres undefined) | 0.73
54 | CCN1C(=O)C(=O)c2ccc(OC)cc2C1=O | 1.49
55 | CCCn1c(=O)c2nc(-c3ccccc3N)[nH]c2n(CCC)c1=O | 3.54
56 | CON=C(C(=O)NC1C(=O)N2C(C(=O)OCOC(=O)C(C)(C)C)=CCSC12)c1csc(N)n1 (centres undefined) | 1.76
57 | NC(Cc1cccc2ccccc12)C(=O)O (centres undefined) | -0.22
58 | COc1c(O)cc2c(c1OC)-c1ccc(SC)c(=O)cc1C(NC(C)=O)CC2 (centres undefined) | 1.43
59 | Cc1cccc(C)c1NC(=O)c1ccc(CN2CCOCC2)cc1 | 2
60 | CCCCCOc1cccc(NC(=O)OCCN2CCOCC2)c1 | 4.13
61 | O=C1NC(=O)C(=O)C(=O)N1 | -1.84
62 | CCCCC(NC(Cc1ccccc1)C(=O)N1CCC(OCOC)CC1)C(=O)NC(CC1CCCCC1)C(O)CC(C(=O)NCCCNCCO)C(C)C (centres undefined) | 3.5
63 | CC(=O)NC(CC(C)C)C(=O)NC(CCCN)C(=O)NC(Cc1ccccc1)C(N)=O (centres undefined) (Ac-Leu-[Orn]-Phe-NH2; configuration not given here) | 0.53
64 | COc1nc(N)nc(C(Cl)(Cl)Cl)n1 | 2.39
65 | C=CCOC1=NS(=O)(=O)c2ccccc21 | 1.4
66 | CNC(=O)C=C(C)OP(=O)(OC)OC | -0.2

Row | Structure (SMILES) | logP
67 | CCN(CC)C(=O)N(C)SN(C)C(=O)ON=C(C)SC | 3.2
68 | O=C(NN1CCCCC1)NS(=O)(=O)c1ccc(Cl)cc1 | 0.84
69 | COc1c([N+](=O)[O-])nc(C)n1C | -0.09
70 | Clc1cc(Cl)c(Cl)c(-c2cc(Cl)c(Cl)cc2Cl)c1 | 7.12
71 | CC(C)(C)N(NC(=O)c1ccccc1F)C(=O)c1ccccc1Cl | 2.63
72 | O=C1OC(O)C(C(Cl)Cl)=C1Cl (centres undefined) | 1.13
73 | Clc1ccc(-c2cc(Cl)c(Cl)cc2Cl)c(Cl)c1 | 7.21
74 | CCOC(=O)C(C)Oc1ccc(Oc2cnc3ccccc3n2)cc1 (centres undefined) | 3.47
75 | CC(C)(C)NCC(O)COCCCc1ccccc1 (centres undefined) | 2.58
76 | CCN1C(=O)C(=O)c2ccc(Cl)cc2C1=O | 1.79
77 | Cc1[nH]c2cccc3c2c1CC1NCC(C(=O)NC2(C(C)C)OC4(O)C5CCCN5C(=O)C(C(C)C)N4C2=O)C=C31 (centres undefined) | 3.15
78 | O=[N+]([O-])c1nccn1COC(CO)C(O)CO (centres undefined) | -1.47
79 | Cc1cccc(OC(C)C(=O)NNC(C)C)c1 (centres undefined) | 1.88
80 | CCOC(=O)c1cc(S(N)(=O)=O)c(Cl)cc1NCc1ccco1 | 2.67
81 | O=C(Cc1ccccc1)NCCNCC(O)COCc1ccccc1 (centres undefined) | 1.45
82 | CCOC(=O)c1cccc2c1C(=O)C(=O)N(CC)C2=O | 1.31
83 | COc1ccc2[nH]c3c(c2c1)CCNc1cc(Cl)ccc1-3 | 4.24
84 | COc1ccc2c(C)cc(=O)n3c(C)cc1c23 | 2.84
85 | Cc1ccccc1C(=O)NN(C(=O)c1ccccc1Cl)C(C)(C)C | 2.91
86 | Cc1[nH]cnc1CSCCNC1=NC(=O)CN1 | -0.5
87 | C#CCOc1c(Cl)cc(NC=NOCOC)cc1Cl | 3.2
88 | CC1=NCCC1 | 1.87

Row | Structure (SMILES) | logP
89 | CNC(Cc1ccccc1)C(=O)O (centres undefined) | -1.53
90 | CCCN(C=Nc1ccn(C2OC(CO)C(O)C2O)c(=O)n1)CCC (centres undefined) | 0.24
91 | CC(C)(N=C(O)C(Br)C(C)(C)C)c1ccccc1 (centres undefined) | 3.47
92 | O=C1C(Br)=C(N2CC2)C(=O)C(Br)=C1N1CC1 | 2.03
93 | C#CCOc1c(Cl)cc(NC=NOCOCC)cc1Cl | 3.5
94 | CCC(C)NC(=O)C(=Cc1ccccc1)Cc1ccccc1 (centres undefined) | 3.99
95 | c1ccc(Cn2ncnn2)cc1 | 1.03
96 | Clc1cccc(-c2cc(Cl)c(Cl)c(Cl)c2Cl)c1Cl | 7.32
97 | O=[N+]([O-])C=C1NCCN1Cc1ccc(Cl)nc1 | -0.19
98 | CCCNc1nc(C(Cl)(Cl)Cl)nc(C(Cl)(Cl)Cl)n1 | 4.09
99 | O=C(Cn1cnnn1)N[C@@H]1C(=O)N2C(C(=O)O)=C(CSc3nncs3)CS[C@H]12 | -0.67
100 | CN1C=CCC(C(=O)OC2CCC(NC(=O)N(CCCl)N=O)CC2)=C1 (centres undefined) | 2.53
101 | O=c1nc(N=CN2CCCC2)ccn1C1OC(CO)C(O)C1O (centres undefined) | -1.15
102 | COC1=C(C)C(=O)c2c(c(COC(N)=O)c3n2CCC3OC(C)=O)C1=O (centres undefined) | 1.54
103 | CC1CCCC(C)C1NC(=O)N(CCCl)N=O (centres undefined) | 2.57
104 | O=[N+]([O-])c1ccc2c(O)cccc2c1 | 3.5
105 | CC(C)(C)C(=O)C(C#N)=NNc1ccc(Cl)cc1C(F)(F)F | 5.67
106 | CCCC(C)C(=O)OCC1CCC(n2cnc3c(=O)[nH]cnc32)O1 (centres undefined) | 1
107 | CC(=O)NC(CCCCN)C(=O)NC(Cc1ccccc1)C(N)=O (centres undefined) | 0.12
108 | COCCCNC(=O)C(F)(F)Cn1cnc([N+](=O)[O-])n1 | 0.01
109 | [N-]=[N+]=CC(=O)NCC(=O)N1CCOCC1 | -0.47
